# B1: agouti: murine agouti peptide produced using a baculovirus system, approximately 60% pure (protein)
# chain: HLALEETLGDDRSLRSNSSMNSLDFSSVSIVALNKKSKKISRKEAEKRKRSSKKKASMKKVARPPPPSPCVATRDSCKPPAPACCDPCASCQCRFFGSACTCRVLNPNC
# What was measured:
# [1] = molecular target: T1, human MC-4 melanocortin receptor (Homo sapiens, UniProt P32245); assay: intracellular cAMP accumulation (adenylate cyclase coupling) in transfected human 293 cells; format: cell-based; parameters: expressed in transfected cells; conditions: 293 cells expressing human MC-4 receptor, 45 min at 37° C.
# Target sequence in this assay (P32245 whole entry): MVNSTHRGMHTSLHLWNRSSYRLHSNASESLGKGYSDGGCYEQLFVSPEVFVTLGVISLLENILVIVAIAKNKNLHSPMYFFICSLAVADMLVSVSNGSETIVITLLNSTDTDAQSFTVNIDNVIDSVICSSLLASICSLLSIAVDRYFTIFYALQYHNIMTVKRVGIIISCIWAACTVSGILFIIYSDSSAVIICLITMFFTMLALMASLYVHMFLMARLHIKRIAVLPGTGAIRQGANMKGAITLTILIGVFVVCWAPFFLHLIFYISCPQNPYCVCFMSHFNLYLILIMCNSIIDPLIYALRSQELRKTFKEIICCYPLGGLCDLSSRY
# Method: Melanocortin receptor coupling to G-proteins in cells expressing the MC-4 melanocortin receptor was used analyze expression of the receptor in cell colonies transfected with the expression vectors described herein as follows. Cells (˜1×10^6) were plated in 6-well dishes, washed once with DMEM containing 1% bovine serum albumin (BSA) and 0.5mM IBMX (a phosphodiesterase inhibitor), then incubated for 45 minutes at 37° C. with varying concentrations of the melanotropic peptides. Following hormone treatment, the cells were washed twice with phosphate buffered saline and intracellular cAMP extracted by lysing the cells with 1 ml of 60% ethanol.
# [2] = molecular target: T1, human MC-4 melanocortin receptor; assay: cell-based or functional assay
# Target sequence in this assay (P32245 other isoform, or with tags, fused parts or gaps): as the sequence (P32245 whole entry) above, with E42A, V65E, V103I, S109R, I169S, M215L, C318S, C319S counted along it
# [3] = test system: LPS-induced anorexia and fever in rats; conditions: central administration; cited from earlier work
# [4] = molecular target: T1, human MC-4 melanocortin receptor; assay: antagonism of agonist-induced cAMP elevation, Schild analysis; format: cell-based; parameters: expressed in transfected cells; conditions: agouti peptide approx. 60% pure; results not shown
# Target sequence in this assay (P32245 whole entry): as the sequence (P32245 whole entry) above
molecule,measurement,setting,value
CSCC[C@H](N)C(=O)N[C@@H](CCC(=O)O)C(=O)N[C@@H](Cc1c[nH]cn1)C(=O)N[C@@H](Cc1ccccc1)C(=O)N[C@@H](CCCNC(=N)N)C(=O)N[C@@H](Cc1c[nH]c2ccccc12)C(=O)NCC(=O)O [ACTH4-10],EC50,[1],> 100 nM
ACTH1-39 (from UniProt P01189 138-176) (peptide),"Ec50 (adenylate cyclase activity, intracellular cAMP accumulation in transfected 293 cells)",[2],0.68 nM
ACTH4-10 (from UniProt P01189) (peptide),"Ec50 (adenylate cyclase activity, intracellular cAMP accumulation in transfected 293 cells)",[2],> 100 nM
"Ac-Nle^4-cyclo(Asp^5, D-Nal(2)^7, Lys^10) αMSH-(4-10)-amide [SHU9119]",effect on LPS-induced fever,[3],increased
same,effect on LPS-induced suppression of food intake,[3],reversal of LPS-induced anorexia
α-melanocyte stimulating hormone [α-MSH],effect on LPS-induced fever,[3],reduced
same,effect on LPS-induced suppression of food intake,[3],significant potentiation of the suppressive effects of LPS on food intake
γ2-MSH (from UniProt P01189 77-88) (peptide),"Ec50 (adenylate cyclase activity, intracellular cAMP accumulation in transfected 293 cells)",[2],> 100 nM
B1,competition of α-MSH activation of human MC-4 melanocortin receptors,[4],Specific competition
